Drawing on a melting point compilation (Tetko et al.; mined from patent text by program, amines drawn as free bases though some values may be those of a salt), this text covers melting point for 90 molecules.

`N#Cc1c(-c2ccccc2)c(-c2ccccc2)nn(CCCO)c1=O` displayed a melting point of 156 to 157 °C.

`NC(=O)c1cc2c(SCc3ccc(Cl)cc3)cncc2s1` yielded a melting point of 198 to 199 °C.

Turning to `CC(C)(C)OC(=O)N1CCC2(CC1)C(=O)N(CC(=O)O)CN2CC1CCCCC1`, the melting point was in the range of 148 to 149 °C.

In the case of `COc1ccc2cc(C#N)c(=O)oc2c1C`, the melting point stood at 215 °C.

Regarding `OCCn1cnc2c(Cl)nc3ccccc3c21`, the melting point fell in the range of 185 to 187 °C.

`CCCCS(=O)(=O)N(C(=O)OC(C)(C)C)c1cc(O)ccc1OCc1ccccc1` showed a melting point of 131 to 133 °C.

As to `Cn1cc(-c2cc(-c3cnc(N)c(C(F)(F)F)c3)ccn2)n(-c2ccc(C(C)(C)C#N)cc2)c1=O`, the melting point turned out to be 195 °C.

On to `COc1ccc(-c2ccccc2[N+](=O)[O-])cc1`, for which the melting point lay within 55 to 56 °C.

The molecule `c1ccc(COc2cccnc2Cn2ccnc2)cc1` had a melting point of 73 to 74 °C.

For the molecule `CC(=O)Nc1cccc(C(c2cccc(NC(C)=O)c2)(C(F)(F)F)C(F)(F)F)c1`, the melting point fell in the range of 309 to 311 °C.

For `CC(=O)Nc1ccc(NC(=O)OCc2ccccc2)c(O)c1`, the melting point is 205 °C.

Molecule `O=C(O)CCCc1cc2nc(C(F)(F)F)ccc2n1S(=O)(=O)c1ccc2c(c1)OCCO2` registered a melting point of 158 °C.

In turn, `CC(=O)OC1CC(=O)N1` (stereo not given) showed a melting point of 152 to 154 °C.

In the case of `CCOC(=O)C1=C(C)NC(c2cnc(N)s2)=NC1c1ccc(F)cc1Cl` (stereo not given), the melting point was in the range of 132 to 135 °C.

`CC(C)C(=O)C(C)(C)C1(O)C(=O)N(Cc2ccc(Cl)cc2)c2ccccc21` (stereo not given) showed a melting point of 105 to 107 °C.

`Cn1cc(C2=C(c3cn(CCC(N)=O)c4ccccc34)C(=O)NC2=O)c2ccccc21` showed a melting point of 243 to 247 °C.

In the case of `CCCCCCC[C@H]1C(=O)OC[C@H](NC(=O)c2nccc(OC)c2O)C(=O)O[C@@H](C)[C@@H]1OC(=O)C(C)C`, the melting point lay in the range of 131 to 134 °C.

`Nc1cc(OCCC2CCCCC2)nc(N)n1` came in with a melting point of 142 °C.

Take `CCOC(=O)C=Cc1ccc(OCCCCOCc2ccccc2)nc1NC(=O)C(C)(C)C`: the melting point lay within 75 to 76 °C.

For the molecule `CC1(C)OC(=O)Nc2ccc(-c3cc(C#N)cc(C#N)c3)cc21`, the melting point lay within 288 to 289 °C.

With `Cc1ccc(S(=O)(=O)ON=C2CC(c3ccccc3)c3ccccc32)cc1` (stereo not given), the melting point lay within 123 to 127 °C.

In turn, `N#Cc1ccc(CN2CCN(c3ccncc3)CC2)cc1` yielded a melting point of 137 to 138 °C.

For the molecule `CC(C)(C)OC(=O)N1CCN(c2nsc3ccccc23)CC1`, the melting point lay within 105 to 107 °C.

In the case of `C[Si](C)(C)CC(C#N)CC(=O)O` (stereo not given), the melting point is 39 to 41 °C.

`CS(=O)CCNC(=O)c1cccc(-c2ccc3c(c2)C(c2ccc(Cl)cc2Cl)CC3)c1` (stereo not given): the melting point is 112 to 113 °C.

`O=C(O)C(=Cc1ccco1)SSC(=Cc1ccco1)C(=O)O` yielded a melting point of 215 °C.

The molecule `COC(=O)c1cccc(C[C@H](N)C(=O)O)c1` registered a melting point above 200 °C.

In the case of `CS(=O)(=O)Nc1cc(C(c2cc(F)ccc2F)S(=O)(=O)c2ccc(Cl)cc2)c(F)cn1` (stereo not given), the melting point lay in the range of 217 to 219 °C.

As to `COc1cc(C=CC(=O)Nc2cnc3c(C)cc(C)cc3c2-c2ccccc2Cl)cc(OC)c1OC(C)=O`, the melting point is 152 to 154 °C.

Turning to `CC(C)(C)c1cc(OCc2ccccc2-c2nnn[nH]2)cc(C(C)(C)C)c1O`, the melting point was in the range of 149 to 150 °C.

Take `CCCn1nc(-c2ccc(OC(=O)CC)cc2)c2cccc(Cl)c21`: the melting point was 66 to 67 °C.

For the molecule `CCN1CCN([C@](O)(CNC(=O)c2ccc(OCc3cc(C)nc4ccccc34)cc2)C(N)=O)CC1`, the melting point was found to be 184 °C.

`CCOc1ccc(Cl)c([N+](=O)[O-])c1` registered a melting point of 48 to 49.5 °C.

Regarding `CNC(=C[N+](=O)[O-])N1CC1`, the melting point lay within 118 to 119 °C.

The molecule `CCCCCc1c(C=CC(=O)OC)nc(C(C)C)c(CO)c1-c1ccc(F)cc1` registered a melting point of 82 to 83 °C.

Take `COC(=O)CCC#Cc1ccc(C(=C2CC(C)(C)CC(C)(C)C2)c2ccc(O)cc2)cc1`: the melting point is 159 to 160 °C.

For the molecule `COc1ccc(C2(c3cccc(-c4ccncc4)c3)N=C(N)N(C)C2=O)cc1C` (stereo not given), the melting point is 175 °C.

In turn, `Cc1ccc(OCn2c(-c3nonc3NCCC#N)nc3ccccc32)cc1C` came in with a melting point of 132 to 135 °C.

`Cc1cccc([N+](=O)[O-])c1-c1c(C)cccc1[N+](=O)[O-]` had a melting point of 107 to 108 °C.

Turning to `Cc1csc2ccc(C(O)=S)cc12`, the melting point is 205 to 207 °C.

With `CCOC(=O)c1c2ccc(CC(=O)NOC(=O)NC)ccc-2c(C(=O)OCC)c1N`, the melting point lay in the range of 222 to 224 °C.

As for `CC1=C2C3C(C)CC4=CC(=O)CCC4C3CCC2(C)C(O)C1` (stereo not given), the melting point was 164 to 167 °C.

With `COc1cc(Br)cc(C23CC4CC(CC(C4)C2)C3)c1O`, the melting point is 157 to 159 °C.

In the case of `CC(C)(c1ccccc1)c1cccc(S(=O)(=O)NC(CCCNC(=N)N)C(=O)O)c1` (stereo not given), the melting point fell in the range of 122 to 124 °C.

The molecule `CCCc1c(OCCCCCC(=O)c2cc(OC)c(OC)c(C(C)C)c2)ccc(C(=O)O)c1O` showed a melting point of 113 to 115 °C.

For the molecule `NCc1cccc2nnsc12`, the melting point lay within 136 to 139 °C.

Take `CNc1ccc(CN2CCN(C(c3ccccc3)c3ccccc3)CC2)cc1[N+](=O)[O-]`: the melting point stood at 121 °C.

Turning to `CCOC(OCC)c1cc(NC(c2ccccc2)(c2ccccc2)c2ccccc2)c(F)c(C(C)(C)C)n1`, the melting point fell in the range of 168 to 170 °C.

`CCCN(CCCCN1CCN(c2ccccc2)CC1)C1CCc2nc(N)sc2C1` (stereo not given) registered a melting point of 156 °C.

`COCCOc1c(C)c(N2CCN(c3ccc(C)cc3)CC2)c(C)c2c1OC(C)(C)C2` yielded a melting point of 118 to 120 °C.

For the molecule `O=c1oc2ccccc2c(O)c1-c1ccc(Cl)c(Cl)c1`, the melting point was 262 °C.

As to `CCOC(=O)/C=C/c1ccc(OCCCOC)cc1Oc1ncc(C(F)(F)F)cc1Cl`, the melting point lay within 86.4 to 86.5 °C.

As for `N#Cc1ccc(C=O)c(SCc2ccccc2)c1`, the melting point fell in the range of 106 to 109 °C.

`O=C(O)C1CCCc2[nH]c3ccccc3c21` (stereo not given) yielded a melting point of 163 to 165 °C.

On to `C[C@H](CN1CC=C(c2cccs2)CC1)Nc1ccccn1`, for which the melting point is 63 to 68 °C.

In turn, `Oc1c(CN2CCCC2)cc(Nc2ccnc3ccccc23)cc1CN1CCCC1` gave a melting point of 67 °C.

For `CCCCCCCCc1ccc(C(=O)C2CC2C(=O)O)cc1` (stereo not given), the melting point was in the range of 45 to 47 °C.

`O=C(O)C(Cc1ccccc1)C(=O)NC(CS)Cc1ccccc1` (stereo not given) yielded a melting point of 65 to 70 °C.

The molecule `C=C(C)COc1cc(C(=O)OC)ccc1OC` displayed a melting point of 62 to 63 °C.

The molecule `CCCCN(C(=O)N[C@@H](CC(=O)O)c1ccc2c(c1)OCO2)C1CC(=O)N(Cc2ccccc2)C1=O` (stereo not given in full) returned a melting point of 80 to 85 °C.

Consider `CCOC(=O)C=Cc1cnc(C(C)(C)C)nc1`, for which the melting point fell in the range of 43 to 45 °C.

For the molecule `NCc1ccccc1CN`, the melting point was above 250 °C.

`O=C(O)C(Cc1ccccc1)Oc1ccc(-c2ccc(-c3c(Cc4ccccc4)oc4ccccc34)cc2)cc1Br` (stereo not given) yielded a melting point of 80 to 82 °C.

`Cc1nn(-c2cccnc2)cc1I` showed a melting point of 131 °C.

In turn, `CS(=O)(=O)c1cnc(Cl)c(I)c1` gave a melting point of 178 to 180 °C.

In the case of `CC(C)(C)c1ccc(C(=O)Nc2cn3nc(NCCc4ccncc4)ccc3n2)cc1`, the melting point amounted to 279 °C.

`CCCOc1ccc(S(=O)(=O)N2CCN(C)CC2)cc1-c1cc2c([nH]1)c(=O)n(C)c(=O)n2CCC` came in with a melting point of 198 °C.

On to `Nc1cccc2c1OCCO2`, for which the melting point was in the range of 134 to 135 °C.

Consider `COc1ccc(Cc2c(F)cccc2F)c(N(CC(N)=O)S(=O)(=O)c2ccc(OC)c(OC)c2)c1`, for which the melting point was found to be 188 °C.

On to `CCCc1nc(C(C)(C)O)c(C(=O)O)n1Cc1ccc(-c2ccccc2C(=O)OC(C)(C)C)cc1`, for which the melting point was 155 to 157 °C.

In the case of `O=C1C2=C(SCCO2)C(O)N1c1ccc2ccc(Cl)cc2n1` (stereo not given), the melting point came out at 270 °C.

Take `Nc1nc(SCc2ccccc2)nn1-c1nnc(-c2ccccc2O)s1`: the melting point fell in the range of 198 to 201 °C.

`CCn1c(-c2c(Cl)cccc2Cl)nc(-c2ccnc(Cl)c2)c1-c1ccc(Cl)cc1` had a melting point of 187 to 189 °C.

Consider `NCCCCNc1ncc2ncnc(Nc3ccc(F)c(Cl)c3)c2n1`, for which the melting point was in the range of 160 to 162 °C.

`NCc1noc(-c2ncn3c2[C@@H]2CCN2C(=O)c2c(Cl)cccc2-3)n1` displayed a melting point of 206 to 208 °C.

In the case of `COc1cc(C(=O)c2csc(-c3ccc(N)cc3)n2)cc(OC)c1OC`, the melting point was in the range of 166 to 169 °C.

Molecule `COc1cccc(C=CC(=O)C(=O)O)c1OC` gave a melting point of 136 to 138 °C.

The molecule `O=C(Nc1ccccc1)Nc1cc(F)ccc1C(=O)O` displayed a melting point of 163 to 166 °C.

`COc1ccc(C(C#N)N2C(=O)c3cccc(NC(C)=O)c3C2=O)cc1OC1CCCC1` (stereo not given) came in with a melting point of 124 to 126 °C.

`Brc1cccc(Br)c1I` gave a melting point of 99 to 100 °C.

In turn, `OC1Cc2cc(I)ccc2Sc2ccccc21` (stereo not given) yielded a melting point of 131 to 133 °C.

As for `NNC(=O)N(O)C1c2ccccc2Oc2ccccc21`, the melting point amounted to 186 °C.

For `O=C(O)[C@H](Cc1ccccc1)NS(=O)(=O)c1ccccc1`, the melting point lay in the range of 150 to 152 °C.

`Cc1ccc(S(=O)(=O)NCC(Cc2ccccc2)NS(=O)(=O)c2ccc(C)cc2)cc1` (stereo not given) came in with a melting point of 128 to 131 °C.

On to `O=C1NN=C(C=Cc2ccc([N+](=O)[O-])cc2)CS1`, for which the melting point lay in the range of 231 to 240 °C.

Turning to `CC(Oc1ncn(-c2ccc(Cl)cc2Cl)n1)C(=O)O` (stereo not given), the melting point was 151 to 153 °C.

As to `O=c1n(Cc2ccccc2)nc2n1C=Cc1ccccc1C2`, the melting point fell in the range of 133 to 134 °C.

The molecule `O=c1c(O)nc2cccnc2n1-c1ccc(Cl)cc1` gave a melting point above 300 °C.

For the molecule `CC1CN(C)CCC1Oc1cccc(NC(=O)c2ccc(F)cc2Cl)n1` (stereo not given), the melting point was in the range of 155 to 160 °C.

The molecule `CC(C)(C)c1cc(C(=O)Nc2cc(Cl)c(Cl)cc2NC(=O)NC23CC4CC(CC(C4)C2)C3)cc(C(C)(C)C)c1O` displayed a melting point of 203 to 207 °C.

For orientation: melting point means the temperature of the solid-liquid transition.
